Measured values published in patent US20090130020A1, “DIAGNOSTIC AGENTS FOR POSITRON EMISSION IMAGING USING F-18 RADIO-LABELED AMINO-ALCOHOLS” (priority 2007, published 2009).

Legend:
[1] = test system: DU-145 prostate cell line; assay: Uptake of [F-18]-labeled compounds into tumor cells; assay type: cell-based; conditions: 5×10^6 cells, 0.5 MBq, time point not given
Experimental: (§1) The uptake of [F-18]-labeled compounds was investigated by incubating 5×10^6 cells in 350 μl incubation buffer with 0.5 MBq [F-18]-labeled compound and taking aliquots at the various time points. The aliquots were transferred into oil, centrifuged shortly to separate cells from free compounds. The tubes were frozen, the cell pellet in the tip of the tube was cut off and radioactivity was measured in a gamma counter.

[2] = test system: PC-3 prostate cell line; assay: as above; assay type: cell-based; conditions: 5×10^6 cells, 0.5 MBq, time point not given
Experimental: as §1

[3] = test system: colon cancer cell line HCT-116; assay: as above; assay type: cell-based; conditions: 5×10^6 cells, 0.5 MBq, time point not given
Experimental: as §1

[4] = test system: lung cancer cell line A549; assay: as above; assay type: cell-based; conditions: 5×10^6 cells, 0.5 MBq, time point not given
Experimental: as §1

[5] = test system: melanoma cell line A375; assay: as above; assay type: cell-based; conditions: 5×10^6 cells, 0.5 MBq, time point not given
Experimental: as §1

[6] = test system: tumor cells lines A375, PC-3, HCT-116, A549 and DU-145; assay: Time dependent uptake of [F-18]-labeled compounds, all cell lines together; assay type: cell-based
Experimental: as §1
FIG. 7: Time dependent uptake of [F-18]-Fluoroethyl-Choline (FE-Ch) into the tumor cells lines A375, PC-3, HCT-116, A549 and DU-145.
FIG. 8: Time dependent uptake of [F-18]-Fluoroethyl-N-Methyl-Ethanolamine into the tumor cells lines A375, PC-3, HCT-116, A549 and DU-145.
FIG. 9: Time dependent uptake of [F-18]-Fluoroethyl-N-Ethyl-Ethanolamine into the tumor cells lines A375, PC-3, HCT-116, A549 and DU-145.
FIG. 10: Time dependent uptake of [F-18]-Fluoropropyl-N-Methyl-Ethanolamine into the tumor cells lines A375, PC-3, HCT-116, A549 and DU-145.

[7] = test system: tumor; conditions: bio-distribution studies; cited from earlier work

**Q.** With C[N+](C)(CCO)CC[18F] [FE-Ch, [F-18]-Fluoroethyl-Choline] as the molecule, how does the uptake [1] read?
**A.** 3%

**Q.** What about the uptake [2] of the same molecule?
**A.** 6.5%

**Q.** And the uptake [3]?
**A.** 4%

**Q.** And the uptake [4]?
**A.** 4%

**Q.** And the uptake [5]?
**A.** 4%

**Q.** And the “maximum value of uptake reached after 60 min” value ([6]; after 60 min, all cell lines)?
**A.** 5-10%

**Q.** What about the “course of uptake over time” value ([6]; over the 60 minutes investigated) of the same molecule?
**A.** slowly linear increasing

**Q.** With CN(CCO)CC[18F] [[F-18]-Fluoroethyl-N-Methyl-Ethanolamine, [F-18]2-[(2-Fluoro-ethyl)-methyl-amino]-ethanol] as the molecule, how does the uptake [1] read?
**A.** 20.5%

**Q.** What about the uptake [2] of the same molecule?
**A.** 25.5%

**Q.** And the uptake [3]?
**A.** 29%

**Q.** And the uptake [4]?
**A.** 17%

**Q.** What about the uptake [5] of the same molecule?
**A.** 22%

**Q.** What about the “uptake after 30 min” value ([6]; after 30 min, across the cell lines (FIG. 8)) of the same molecule?
**A.** 17-30%

**Q.** For [C-14]dimethyl-ethanolamine, which “tumor uptake in bio-distribution” value [7] is on record?
**A.** tumor uptake

**Q.** For “[C-14]ethanolamine [[C-14] derivative of ethanolamine (1)]”, which “tumor uptake in bio-distribution” value [7] is on record?
**A.** tumor uptake
